The target of one assay is T1, Stat1 (pY701) (Homo sapiens, UniProt P42224).
T1 construct: endogenous in cells; host or cells: HepG2
T1 sequence (P42224 1-750): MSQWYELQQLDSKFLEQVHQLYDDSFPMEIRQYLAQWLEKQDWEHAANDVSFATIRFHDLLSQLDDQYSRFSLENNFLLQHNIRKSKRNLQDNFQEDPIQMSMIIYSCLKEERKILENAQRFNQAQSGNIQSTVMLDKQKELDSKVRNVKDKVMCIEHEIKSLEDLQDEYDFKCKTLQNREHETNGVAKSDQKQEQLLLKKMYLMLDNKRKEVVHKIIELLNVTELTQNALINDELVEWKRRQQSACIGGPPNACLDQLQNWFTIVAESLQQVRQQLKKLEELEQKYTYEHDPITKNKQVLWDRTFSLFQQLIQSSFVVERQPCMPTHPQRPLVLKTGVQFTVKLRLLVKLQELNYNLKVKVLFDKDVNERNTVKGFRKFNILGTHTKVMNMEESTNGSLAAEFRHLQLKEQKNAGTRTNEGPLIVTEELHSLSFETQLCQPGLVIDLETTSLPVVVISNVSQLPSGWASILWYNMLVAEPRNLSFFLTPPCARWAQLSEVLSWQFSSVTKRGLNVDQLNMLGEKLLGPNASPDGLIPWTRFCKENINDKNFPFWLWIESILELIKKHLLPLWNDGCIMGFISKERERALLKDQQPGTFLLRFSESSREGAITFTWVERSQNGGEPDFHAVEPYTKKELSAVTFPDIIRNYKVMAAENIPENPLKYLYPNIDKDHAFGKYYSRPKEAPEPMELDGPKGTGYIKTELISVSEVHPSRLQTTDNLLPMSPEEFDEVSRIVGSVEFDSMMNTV
Description: Immunoblot: IFN-γ-mediated phosphorylation of Stat1 in HepG2 cells. The class given is cell-based. The conditions noted are these: HepG2, compound 300 μM, 1 hour. Here is the method: HepG2 cells were pretreated with DMSO alone or DMSO containing each of the compounds at a concentration of 300 μM for 60 min. Cells were then stimulated with IFN-γ (30 ng/ml) for 30 min. Protein extracts of cells were separated by SDS-PAGE and immunoblotted serially with antibodies to pStat1, total Stat1 and β-actin. Blots were stripped between each immunoblotting. The results shown are representative of 2 or more experiments.
Immunoblot assay. The human hepatocellular carcinoma cell line (HepG2) was grown in 6-well plates under standard conditions. Cells were pretreated with compounds (0, 1, 3, 10, 30, 100 and 300 uM) for 1 hour then stimulated under optimal conditions with either interferon gamma (IFN-γ; 30 ng/ml for 30 min) to activate Stat1 or interleukin-6 (IL-6; 30 ng/ml for 30 min) to activate Stat3 (30-31). Cultures were then harvested and proteins extracted using high-salt buffer, as described (Shao et al., 2006). Briefly, extracts were mixed with 2× sodium dodecyl sulfate (SDS) sample buffer (125 mmol/L Tris-HCL pH 6.8; 4% SDS; 20% glycerol; 10% 2-mercaptoethanol) at a 1:1 ratio and heated for 5 minutes at 100° C. Proteins (20 μg) were separated by 7.5% SDS-PAGE and transferred to polyvinylidene fluoride (PVDF) membrane (Millipore, Waltham, Mass.) and immunoblotted. Prestained molecular weight markers (Biorad, Hercules, Calif.) were included in each gel. Membranes were probed serially with antibody against Stat1 pY^701 or Stat3 pY^705 followed by antibody against Stat1 or Stat3 (Transduction labs, Lexington, Ky.) then antibody against β-actin (Abcam, Cambridge, Mass.). Membranes were stripped between antibody probing using Restore™ Western Blot Stripping Buffer (Thermo Fisher Scientific Inc., Waltham, Mass.) per the manufacturer's instructions. Horseradish peroxidase-conjugated goat-anti-mouse IgG was used as the secondary antibody (Invitrogen Carlsbad, Calif.) and the membranes were developed with enhanced chemiluminescence (ECL) detection system (Amersham Life Sciences Inc.; Arlington Heights, Ill.).
EXP IIC. Ligand-mediated pStat3 and pStat1 inhibition assays. […] Briefly, human hepatocellular carcinoma cells (HepG2) are grown in 6-well plates and pretreated with compounds (0, 0.1, 0.3, 1, 3, 10, 30, 100 μM) for 1 hour then stimulated under optimal conditions with either interleukin-6 (IL-6; 30 ng/ml for 30 min) to activate Stat3 or interferon gamma (IFN-γ; 30 ng/ml for 30 min) to activate Stat1. Cells are harvested and proteins extracted using high-salt buffer, mixed with 2× sodium dodecyl sulfate (SDS) sample buffer (125 mmol/L Tris-HCL pH 6.8; 4% SDS; 20% glycerol; 10%2-mercaptoethanol) at a 1:1 ratio then heated for 5 minutes at 100° C. Proteins (20 μg) are separated by 7.5% SDS-PAGE and transferred to polyvinylidene fluoride (PVDF) membrane (Millipore, Waltham, Mass.) and immunoblotted. Membranes are probed serially with antibody against Stat1 pY701 or Stat3 pY705 followed by antibody against Stat1 or Stat3 (Transduction labs, Lexington, Ky.) then antibody against β-actin (Abcam, Cambridge, Mass.). Membranes are stripped between antibody probings using Restore™ Western Blot Stripping Buffer (Thermo Fisher Scientific Inc., Waltham, Mass.) per the manufacturer's instructions. Horseradish peroxidase-conjugated goat-anti-mouse IgG is used as the secondary antibody (Invitrogen Carlsbad, Calif.) and the membranes are developed with enhanced chemiluminescence (ECL) detection system (Amersham Life Sciences Inc.; Arlington Heights, Ill.). Band intensities are quantified by densitometry. The value of each pStat3 band is divided by its corresponding total Stat3 band intensity; the results are normalized to the DMSO-treated control value. This value was plotted as a function of the log compound concentration. The best-fitting curve is determined using 4-Parameter Logistic Model/Dose Response/XLfit 4.2, IDBS software and was used to calculate the IC50 value.
A general note: Immunoblotting shows a protein as a band on a membrane.

The test system of assay [1] is breast cancer cell lines (MDA-MB-468, MDA-MB-231, MBA-MD-435, MCF7, MDA-MB-453). Description: Breast cancer cell line apoptosis assay (nucleosome ELISA). The class given is cell-based, human. Here is the method: Breast cancer cell line apoptosis assay. Human breast carcinoma cell lines MDA-MB-468, MDA-MB-231, MBA-MD-435 and MCF7 were kindly provided by Dr. Powel H. Brown (Breast Cancer Center, Baylor College of Medicine). Breast cancer cell line, MDA-MB-453 was kindly provided by Dr. Shou Jiang (Breast Cancer Center, Baylor College of Medicine). All cell lines were grown in DMEM medium supplemented with 10% fetal bovine serum (FBS), 25,000 units penicillin G, 25,000 ug streptomycin, and 131.4 mg L-Glutamine and cultured in the incubator under the condition of 95% air, 5% CO2 at 37° C. (Garcia et al., 2001). Cells were seeded at 2,500 cells/cm^2 into 12-well plates. At 80% confluency, cells were washed with PBS and supplemented with fresh medium containing compound or the topoisomerase I-inhibitor, camptothecin, at 0, 0.1, 03, 1, 3, 10, 30, 100, 300 μM. At 24 hours, treatment was terminated by removing the medium from each well. Cells were lysed with cell lysis buffer ([…] for 30 minutes at 25° C.). Cell lysate (200 μl) was centrifuged at 200×g for 10 minutes and […] of each supernatant was assayed for nucleosomes using the Cell Death Detection ELISA (Roche Applied Science) as described by the manufacturer. The percent maximum nucleosome level was calculated by dividing the nucleosome level by the maximum nucleosome level achieved in the assay and multiplying by 100. This value was plotted as a function of the log compound concentration and the best-fitting curve generated using 4-Parameter Logistic Model/Dose Response/XLfit 4.2, IDBS software.
(An ELISA detects its analyte on a solid surface through an enzyme-linked reagent.)

The next assay relates to skin fibrosis. Description: Subcutaneous bleomycin mouse model of skin fibrosis. The class given is in vivo. On the procedure: FIG. 20 illustrates an exemplary study design using a subcutaneous (SQ) bleomycin model for skin fibrosis. In a basic model, bleomycin is administered to wild type mice (C57/Bl6) via subcutaneous injection 5 days a week for a total of 4 weeks. PBS is used as a control for the bleomycin. Fibrosis is assessed in the biopsied skin on day 28. Fibrosis is assessed using histology (hematoxylin and eosin stain), where the dermal thickness is quantified as the average linear distance from the dermis-epidermis junction to the subQ muscle layer. Masson's trichrome staining is also performed to stain collagen blue. Immunohistochemistry is performed for alpha-smooth muscle actin, the marker of the myofibroblasts (cell that makes collagen during the process of fibrosis). Future endpoints are assessed including collagen content. To illustrate that STAT3 inhibitor is a useful therapy at least for dermal fibrosis, an example of a STAT3 inhibitor (C188-9) was given via the intraperitoneal route daily, starting in week 3 of the bleomycin model. DMSO was used as a control for the STAT3 inhibitor.

Entries after “also recorded” stand apart in the source; their conditions may differ.

On to `CCN1C(=O)C(=Cc2ccc(-c3ccc(C(=O)O)cc3)o2)SC1=S` [Cpd30, 4{5-[(3-ethyl-4-oxo-2-thioxo-1,3-thiazolidin-5-ylidene)methyl]-2-furyl}benzoic acid], for which the “Stat1 phosphorylation after IFN-γ stimulation” value (“Stat1 phosphorylation” below) on Stat1 (pY701) is recorded as “did not”. The “apoptosis of breast cancer cell lines with constitutive Stat3 activation” value in assay [1] is recorded as “induced apoptosis preferentially”.

For `COc1ccc(S(=O)(=O)Nc2cc(-c3c(O)ccc4ccccc34)c(O)c3ccccc23)cc1` [STAT3 inhibitor, N-(1′,2-dihydroxy-1,2′-binaphthalen-4′-yl)-4-methoxybenzenesulfonamide], the “dermal thickness in PBS-injected mice, DMSO vs STAT3 inhibitor” value in the assay with skin fibrosis (PBS-injected (no bleomycin) mice) is “no difference”. Besides, in the assay with skin fibrosis (SC bleomycin mice), the “alpha-SMA accumulation / staining in skin” value was “decreased” and the “collagen deposition / content in skin (Masson's trichrome)” value is on record as “decreased”. Besides, the dermal thickness result in the assay with skin fibrosis (SC bleomycin mice, inhibitor intraperitoneal daily from week 3) is “decreased; also recorded: reduced”.

In the case of `O=C(O)CSc1cc(NS(=O)(=O)c2ccc(C(=O)O)cc2)c2ccccc2c1O` [Cpd188, 4-[({3-[(carboxymethyl)thio]-4-hydroxy-1-naphthyl}amino)sulfonyl]benzoic acid], the “Stat1 phosphorylation” value on Stat1 (pY701) is “did not”. Further, the “apoptosis of breast cancer cell lines with constitutive Stat3 activation” value in assay [1] is on record as “induced apoptosis preferentially”.

For `COC(=O)Cc1c(C)c2ccc(OCc3ccc(C(=O)OC)cc3)c(C)c2oc1=O` [Cpd3-7, methyl 4-({[3-(2-methyoxy-2-oxoethyl)-4,8-dimethyl-2-oxo-2H-chromen-7-yl]oxy}methyl)benzoate], the “Stat1 phosphorylation” value on Stat1 (pY701) is given as “did not”.

The values are drawn from patent publication US10112933B2, “Methods and compositions for treatment of fibrosis” (Baylor College of Medicine, priority 2013, dated 2018).
